The values below are quoted from earlier work in patent publication US20140199405A1, “METHOD FOR TREATING CANCER BASED ON MUTATION STATUS OF K-RAS” (priority 2013, published 2014).

Data set [1] concerns locally advanced pancreatic cancer. Particulars: patients with locally advanced pancreatic cancer.
The test system of data set [2] is pancreatic cancer. Conditions: combination versus gemcitabine monotherapy.

As for `O=c1[nH]cc(F)c(=O)[nH]1` [5-FU, 5-fluororuracil], in data set [1], the median overall survival is reported as 4.2 months and the “median time to disease progression” value is 0.9 months.
For the molecule `Nc1ccn([C@@H]2O[C@H](CO)[C@@H](O)C2(F)F)c(=O)n1` [gemcitabine], in data set [1], the median overall survival is listed as 5.7 months and the “median time to disease progression” value was 2.1 months. Besides, in data set [2], the median overall survival is given as 6.0 months and the “median progression free survival” value is listed as 3.5 months.
